This is an account of results in paper PMC4670083 (Nature medicine, 2015).

SMILES strings stand for the structures.

The target in this experiment is T1, HPRT1 (Homo sapiens, UniProt P00492).
T1 sequence (P00492 2-218): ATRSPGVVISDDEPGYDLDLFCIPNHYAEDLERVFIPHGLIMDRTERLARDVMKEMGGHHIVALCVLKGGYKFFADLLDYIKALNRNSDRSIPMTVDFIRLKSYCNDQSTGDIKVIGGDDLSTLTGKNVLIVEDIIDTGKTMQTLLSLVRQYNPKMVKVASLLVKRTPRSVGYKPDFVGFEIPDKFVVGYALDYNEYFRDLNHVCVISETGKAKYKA
The experiment can be described thus: biochemical.

A word on the IC50: it is the concentration that gives 50% inhibition. A high value points to weaker potency in that assay.

For the molecule `O=c1[nH]cnc2nc[nH]c12` [HX, hypoxanthine], 7.7 µM corresponded to half-maximal inhibition (IC50).
